Assay results taken from US11098038B2, “Imidazole-based anticancer agents and derivatives thereof, and methods of making and using same” (The University of Toledo, priority 2017, dated 2021).

Legend:
CCRF-CEM = assay: NCI 60 screen, CCRF-CEM; assay type: cell-based; settings: Homo sapiens, Leukemia
Protocol: (§1) The compounds synthesized were tested at the National Cancer Institute (NCI) for anti-proliferative activity in the 60 human tumor cell line assay.

HL-60(TB) = assay: NCI 60 screen, HL-60(TB); assay type: cell-based; settings: Homo sapiens, Leukemia
Protocol: as §1

MOLT-4 = assay: NCI 60 screen, MOLT-4; assay type: cell-based; settings: Homo sapiens, Leukemia
Protocol: as §1

RPMI-8226 = assay: NCI 60 screen, RPMI-8226; assay type: cell-based; settings: Homo sapiens, Leukemia
Protocol: as §1

SR = assay: NCI 60 screen, SR; assay type: cell-based; settings: Homo sapiens, Leukemia
Protocol: as §1

A549/ATCC = assay: NCI 60 screen, A549/ATCC; assay type: cell-based; settings: Homo sapiens, Non-Small Cell Lung
Protocol: as §1

EKVX = assay: NCI 60 screen, EKVX; assay type: cell-based; settings: Homo sapiens, Non-Small Cell Lung
Protocol: as §1

HOP-62 = assay: NCI 60 screen, HOP-62; assay type: cell-based; settings: Homo sapiens, Non-Small Cell Lung
Protocol: as §1

HOP-92 = assay: NCI 60 screen, HOP-92; assay type: cell-based; settings: Homo sapiens, Non-Small Cell Lung
Protocol: as §1

NCI-H226 = assay: NCI 60 screen, NCI-H226; assay type: cell-based; settings: Homo sapiens, Non-Small Cell Lung
Protocol: as §1

NCI-H23 = assay: NCI 60 screen, NCI-H23; assay type: cell-based; settings: Homo sapiens, Non-Small Cell Lung
Protocol: as §1

NCI-322M = assay: NCI 60 screen, NCI-322M; assay type: cell-based; settings: Homo sapiens, Non-Small Cell Lung
Protocol: as §1

NCI-460 = assay: NCI 60 screen, NCI-460; assay type: cell-based; settings: Homo sapiens, Non-Small Cell Lung
Protocol: as §1

NCI-H522 = assay: NCI 60 screen, NCI-H522; assay type: cell-based; settings: Homo sapiens, Non-Small Cell Lung
Protocol: as §1

COLO 205 = assay: NCI 60 screen, COLO 205; assay type: cell-based; settings: Homo sapiens, Colon
Protocol: as §1

HCC-2998 = assay: NCI 60 screen, HCC-2998; assay type: cell-based; settings: Homo sapiens, Colon
Protocol: as §1

HCT-116 = assay: NCI 60 screen, HCT-116; assay type: cell-based; settings: Homo sapiens, Colon
Protocol: as §1

HCT15 = assay: NCI 60 screen, HCT15; assay type: cell-based; settings: Homo sapiens, HCT-15, Colon
Protocol: as §1

HT29 = assay: NCI 60 screen, HT29; assay type: cell-based; settings: Homo sapiens, HT-29, Colon
Protocol: as §1

KM12 = assay: NCI 60 screen, KM12; assay type: cell-based; settings: Homo sapiens, Colon
Protocol: as §1

SW-620 = assay: NCI 60 screen, SW-620; assay type: cell-based; settings: Homo sapiens, Colon
Protocol: as §1

SF-268 = assay: NCI 60 screen, SF-268; assay type: cell-based; settings: Homo sapiens, CNS
Protocol: as §1

SF-295 = assay: NCI 60 screen, SF-295; assay type: cell-based; settings: Homo sapiens, CNS
Protocol: as §1

SF-539 = assay: NCI 60 screen, SF-539; assay type: cell-based; settings: Homo sapiens, CNS
Protocol: as §1

SNB-19 = assay: NCI 60 screen, SNB-19; assay type: cell-based; settings: Homo sapiens, CNS
Protocol: as §1

SNB-75 = assay: NCI 60 screen, SNB-75; assay type: cell-based; settings: Homo sapiens, CNS
Protocol: as §1

U251 = assay: NCI 60 screen, U251; assay type: cell-based; settings: Homo sapiens, U-251, CNS
Protocol: as §1

LOX IMVI = assay: NCI 60 screen, LOX IMVI; assay type: cell-based; settings: Homo sapiens, Melanoma
Protocol: as §1

MALME-3M = assay: NCI 60 screen, MALME-3M; assay type: cell-based; settings: Homo sapiens, Melanoma
Protocol: as §1

MDA-MB-435 = assay: NCI 60 screen, MDA-MB-435; assay type: cell-based; settings: Homo sapiens, Melanoma
Protocol: as §1

SK-MEL-2 [1] = assay: NCI 60 screen, SK-MEL-2 (first line); assay type: cell-based; settings: Homo sapiens; Melanoma, SK-MEL-2 (first of two lines so named, r37)
Protocol: as §1

SK-MEL-2 [2] = assay: NCI 60 screen, SK-MEL-2 (second line); assay type: cell-based; settings: Homo sapiens; Melanoma, SK-MEL-2 (second of two lines so named, r38)
Protocol: as §1

SK-MEL-5 = assay: NCI 60 screen, SK-MEL-5; assay type: cell-based; settings: Homo sapiens, Melanoma
Protocol: as §1

UACC-257 = assay: NCI 60 screen, UACC-257; assay type: cell-based; settings: Homo sapiens, Melanoma
Protocol: as §1

UACC-62 = assay: NCI 60 screen, UACC-62; assay type: cell-based; settings: Homo sapiens, Melanoma
Protocol: as §1

IGROV1 = assay: NCI 60 screen, IGROV1; assay type: cell-based; settings: Homo sapiens, IGROV-1, Ovarian
Protocol: as §1

OVCAR-3 = assay: NCI 60 screen, OVCAR-3; assay type: cell-based; settings: Homo sapiens, Ovarian
Protocol: as §1

OVCAR-4 = assay: NCI 60 screen, OVCAR-4; assay type: cell-based; settings: Homo sapiens, Ovarian
Protocol: as §1

OVCAR-5 = assay: NCI 60 screen, OVCAR-5; assay type: cell-based; settings: Homo sapiens, Ovarian
Protocol: as §1

OVCAR-8 = assay: NCI 60 screen, OVCAR-8; assay type: cell-based; settings: Homo sapiens, Ovarian
Protocol: as §1

NCI/ADR-RES = assay: NCI 60 screen, NCI/ADR-RES; assay type: cell-based; settings: Homo sapiens, Ovarian
Protocol: as §1

SK-OV-3 = assay: NCI 60 screen, SK-OV-3; assay type: cell-based; settings: Homo sapiens, Ovarian
Protocol: as §1

786-0 = assay: NCI 60 screen, 786-0; assay type: cell-based; settings: Homo sapiens, Renal
Protocol: as §1

A498 = assay: NCI 60 screen, A498; assay type: cell-based; settings: Homo sapiens, Renal
Protocol: as §1

ACHN = assay: NCI 60 screen, ACHN; assay type: cell-based; settings: Homo sapiens, Renal
Protocol: as §1

CAKI-1 = assay: NCI 60 screen, CAKI-1; assay type: cell-based; settings: Homo sapiens, Renal
Protocol: as §1

RXF393 = assay: NCI 60 screen, RXF393; assay type: cell-based; settings: Homo sapiens, RXF 393, Renal
Protocol: as §1

SN12C = assay: NCI 60 screen, SN12C; assay type: cell-based; settings: Homo sapiens, Renal
Protocol: as §1

TK-10 = assay: NCI 60 screen, TK-10; assay type: cell-based; settings: Homo sapiens, Renal
Protocol: as §1

UO-31 = assay: NCI 60 screen, UO-31; assay type: cell-based; settings: Homo sapiens, Renal
Protocol: as §1

PC-3 = assay: NCI 60 screen, PC-3; assay type: cell-based; settings: Homo sapiens, Prostatic
Protocol: as §1

DU-145 = assay: NCI 60 screen, DU-145; assay type: cell-based; settings: Homo sapiens, Prostatic
Protocol: as §1

MCF7 = assay: NCI 60 screen, MCF7; assay type: cell-based; settings: Homo sapiens, Breast
Protocol: as §1

MDA-MB-231/ATCC = assay: NCI 60 screen, MDA-MB-231/ATCC; assay type: cell-based; settings: Homo sapiens, Breast
Protocol: as §1

HS 578T = assay: NCI 60 screen, HS 578T; assay type: cell-based; settings: Homo sapiens, Breast
Protocol: as §1

BT-549 = assay: NCI 60 screen, BT-549; assay type: cell-based; settings: Homo sapiens, Breast
Protocol: as §1

T-47D = assay: NCI 60 screen, T-47D; assay type: cell-based; settings: Homo sapiens, T47D, Breast
Protocol: as §1

MDA-MB-468 = assay: NCI 60 screen, MDA-MB-468; assay type: cell-based; settings: Homo sapiens, Breast
Protocol: as §1

Work on Cc1ccc(NC(=O)Cc2ccc(/C=C/C(=O)c3ncc[nH]3)cc2)cc1 [Compound 20, (E)-2-(4-(3-(1H-imidazol-2-yl)-3-oxoprop-1-en-1-yl)phenyl)-N-(p-tolyl)acetamide] yielded a GI50 (CCRF-CEM) of 4.67 µM, a GI50 (HL-60(TB)) of 5.88 µM and a GI50 (MOLT-4) of 5.33 µM. It also gave a GI50 (RPMI-8226) of 1.79 µM, a GI50 (SR) of 0.99 µM and a GI50 (A549/ATCC) of 9.14 µM. It also gave a GI50 (EKVX) of 1.35 µM, a GI50 (HOP-62) of 5.24 µM and a GI50 (HOP-92) of 1.85 µM. It also gave a GI50 (NCI-H226) of 9.59 µM, a GI50 (NCI-H23) of 5.85 µM and a GI50 (NCI-322M) of 6.06 µM. It also gave a GI50 (NCI-460) of 6.32 µM, a GI50 (NCI-H522) of 4.54 µM and a GI50 (COLO 205) of 7.27 µM. For the same compound, the GI50 (HCC-2998) was 6.73 µM, the GI50 (HCT-116) was 3.28 µM and the GI50 (HCT15) was 2.01 µM. For the same compound, the GI50 (HT29) was 0.955 µM, the GI50 (KM12) was 3.09 µM and the GI50 (SW-620) was 5.22 µM. For the same compound, the GI50 (SF-268) was 5.32 µM, the GI50 (SF-295) was 7.9 µM and the GI50 (SF-539) was 4.76 µM. It also gave a GI50 (SNB-19) of 6.65 µM, a GI50 (SNB-75) of 7 µM and a GI50 (U251) of 1.59 µM. The GI50 (LOX IMVI) was 1.29 µM, the GI50 (MALME-3M) was 25 µM and the GI50 (MDA-MB-435) was 5.68 µM. The GI50 (SK-MEL-2 [1]) was 18.1 µM, the GI50 (SK-MEL-2 [2]) was 11.5 µM and the GI50 (SK-MEL-5) was 18.3 µM. The GI50 (UACC-257) was 25 µM, the GI50 (UACC-62) was 8.29 µM and the GI50 (IGROV1) was 6.47 µM. It also gave a GI50 (OVCAR-3) of 1.67 µM, a GI50 (OVCAR-4) of 10.4 µM and a GI50 (OVCAR-5) of 6.84 µM. The GI50 (OVCAR-8) was 7.24 µM, the GI50 (NCI/ADR-RES) was 6.73 µM and the GI50 (SK-OV-3) was 12.8 µM. For the same compound, the GI50 (786-0) was 4.28 µM, the GI50 (A498) was 19.9 µM and the GI50 (ACHN) was 6.51 µM. For the same compound, the GI50 (CAKI-1) was 9.63 µM, the GI50 (RXF393) was 7.68 µM and the GI50 (SN12C) was 5.91 µM. The GI50 (TK-10) was 7.93 µM, the GI50 (UO-31) was 3.01 µM and the GI50 (PC-3) was 7.1 µM. It also gave a GI50 (DU-145) of 4.56 µM, a GI50 (MCF7) of 1.15 µM and a GI50 (MDA-MB-231/ATCC) of 9.46 µM. For the same compound, the GI50 (HS 578T) was 13.6 µM, the GI50 (BT-549) was 6.42 µM and the GI50 (T-47D) was 6.47 µM. For the same compound, the GI50 (MDA-MB-468) was 3.3 µM and the melting point was 218.5 °C.
